Key:
[1] = system: pheochromocytoma animal model with extensive liver and other organ lesions; assay type: in vivo; details: preliminary experiments
[2] = system: s.c. pheochromocytoma tumors (MPC cells); assay: [^18F]-DA and [^18F]-DOPA PET in mice with subcutaneous pheochromocytoma; details: for SUVmax (mean±S.E.M.), s.c. tumors <5 mm / SUVmax (mean±S.E.M.), s.c. tumors >5 mm / SUVmax in tumor sample s.c. 1 / SUVmax in tumor sample s.c. 2 / SUVmax in tumor sample s.c. 3 / TLR for s.c. tumors (range over tumor size) / TLR, s.c. tumors <5 mm / TLR, s.c. tumors >5 mm / TBR, s.c. tumors <5 mm / TBR, s.c. tumors >5 mm: 60–70 min after administration; for TBR, s.c. tumors <5 mm / TBR, s.c. tumors >5 mm: muscle as background; for number of subcutaneous tumors localized by PET: necropsy 4 in 4 mice
[3] = system: organ metastatic pheochromocytoma lesions (MPC cells); assay: [^18F]-DA and [^18F]-DOPA PET in mice with organ metastatic pheochromocytoma; details: for TBR (tumor-to-background ratio), liver tumors <3 mm / TBR, adrenal tumors >3 mm / TBR, liver tumors >3 mm / TBR, ovary tumors >3 mm: muscle as background; for SUVmax in tumor sample Adrenal 1: sample also immunostained; for SUVmax in liver lesions, the first week / SUVmax in liver lesions, the second week: liver lesions imaged once a week for two weeks; for optimal time for lesion detection after administration: liver lesions vs liver background, dynamic PET up to 70 min; for number of ovary tumors localized by PET: necropsy 4 in 4 mice; for number of lung tumors localized by PET: necropsy >20 in 2 mice
[4] = cited from earlier work
[5] = Fig. 3G, 60–70 min after injection

CNCCCN1c2ccccc2CCc2ccccc21 [desipramine]
side effects on administration in tumor-bearing animals [1]: side effects were in most cases fatal

NCCc1cc(O)c(O)cc1[18F] [[^18F]-DA, [^18F]-6-fluorodopamine]
SUVmax (mean±S.E.M.), s.c. tumors <5 mm [2]: 0.31±0.02 | SUVmax (mean±S.E.M.), s.c. tumors >5 mm [2]: 0.35±0.12 | SUVmax in tumor sample s.c. 1 [2]: — (A dash sign “—” presents SUVmax values less than 0.3 for both [^18F]-DA and [^18F]-DOPA) | SUVmax in tumor sample s.c. 2 [2]: — (A dash sign “—” presents SUVmax values less than 0.3 for both [^18F]-DA and [^18F]-DOPA) | SUVmax in tumor sample s.c. 3 [2]: — (A dash sign “—” presents SUVmax values less than 0.3 for both [^18F]-DA and [^18F]-DOPA) | TLR for s.c. tumors (range over tumor size) [2]: 0.22-0.27 | TLR, s.c. tumors <5 mm [2]: 0.22 | TLR, s.c. tumors >5 mm [2]: 0.27 | TBR, s.c. tumors <5 mm [2]: 1.72 | TBR, s.c. tumors >5 mm [2]: 1.94 | SUVmax in large s.c. tumor, representative animal [2, 5]: 0.35 | SUVmax in muscle (nontarget tissue), representative animal [2, 5]: 0.31 | number of subcutaneous tumors localized by PET ([2]; four mice): 0 | SUVmax (mean±S.E.M.), adrenal tumors >3 mm ([3]; 60–70 min after administration): 2.18±0.39 | SUVmax (mean±S.E.M.), kidney ([3]; 60–70 min after administration): 2.41±0.45 | SUVmax (mean±S.E.M.), liver ([3]; 60–70 min after administration): 0.88±0.11 | SUVmax (mean±S.E.M.), liver tumors <3 mm ([3]; 60–70 min after administration): 1.61±0.17 | SUVmax (mean±S.E.M.), liver tumors >3 mm ([3]; 60–70 min after administration): 2.49±0.08 | SUVmax (mean±S.E.M.), muscle (background) ([3]; 60–70 min after administration): 0.31±0.02 | SUVmax (mean±S.E.M.), ovary tumors >3 mm ([3]; 60–70 min after administration): 1.99±0.27 | SUVmax in tumor sample Adrenal 2 ([3]; 60–70 min after administration): 1.98 | SUVmax in tumor sample Bone ([3]; 60–70 min after administration): — (A dash sign “—” presents SUVmax values less than 0.3 for both [^18F]-DA and [^18F]-DOPA) | SUVmax in tumor sample Liver 1 ([3]; 60–70 min after administration): 2.46 | SUVmax in tumor sample Liver 2 ([3]; 60–70 min after administration): 1.89 | SUVmax in tumor sample Liver 3 ([3]; 60–70 min after administration): — (A dash sign “—” presents SUVmax values less than 0.3 for both [^18F]-DA and [^18F]-DOPA) | SUVmax in tumor sample Lung ([3]; 60–70 min after administration): — (A dash sign “—” presents SUVmax values less than 0.3 for both [^18F]-DA and [^18F]-DOPA) | SUVmax in tumor sample Ovary ([3]; 60–70 min after administration): 1.92 | TLR (tumor-to-liver ratio), liver tumors <3 mm ([3]; 60–70 min after administration): 1.83 | TLR for liver lesions (range depending on tumor size) ([3]; 60–70 min after administration): 1.83–2.83 | TLR, adrenal tumors >3 mm ([3]; 60–70 min after administration): 2.47 | TLR, liver tumors >3 mm ([3]; 60–70 min after administration): 2.83 | TLR, ovary tumors >3 mm ([3]; 60–70 min after administration): 2.26 | TBR (tumor-to-background ratio), liver tumors <3 mm ([3]; 60–70 min after administration): 5.19 | TBR, adrenal tumors >3 mm ([3]; 60–70 min after administration): 7.03 | TBR, liver tumors >3 mm ([3]; 60–70 min after administration): 8.03 | TBR, ovary tumors >3 mm ([3]; 60–70 min after administration): 6.41 | SUVmax in tumor sample Adrenal 1 ([3]; 60–70 min after administration): 2.15 | SUVmax time–activity course, liver lesions smaller than 3 mm ([3]; dynamic PET 10–70 min, Fig. 1): remained relatively stable | SUVmax time–activity course, liver tumors larger than 3 mm ([3]; dynamic PET 10–70 min, Fig. 1): decrease in SUVmax over time | SUVmax in liver lesions, the first week [3]: 1.85±0.199 | SUVmax in liver lesions, the second week [3]: 1.16±0.07 | optimal time for lesion detection after administration [3]: 60 to 70 min | number of mice with adrenal tumors localized by PET ([3]; week 5, nine mice): 4 mice | number of mice with liver tumors localized by PET ([3]; week 5, nine mice): 8 mice | number of mice with ovary tumors localized by PET ([3]; week 5, nine mice): 4 in 4 mice | number of ovary tumors localized by PET ([3]; week 5, nine mice): 4 in 4 mice | number of lung tumors localized by PET ([3]; week 5, nine mice): 0

NCCc1ccc(O)c(O)c1 [dopamine]
half-life in circulation [4]: about 1 minute

COC(=O)[C@H]1[C@H]2C[C@@H]3c4[nH]c5cc(OC)ccc5c4CCN3C[C@H]2C[C@@H](OC(=O)c2cc(OC)c(OC)c(OC)c2)[C@@H]1OC [reserpine]
side effects on administration in tumor-bearing animals [1]: side effects were in most cases fatal

N[C@@H](Cc1cc(O)c(O)cc1[18F])C(=O)O [[^18F]-DOPA, [^18F]-L-6-fluoro-3,4-dihydroxyphenylalanine]
SUVmax (mean±S.E.M.), s.c. tumors <5 mm [2]: 2.88±0.88 | SUVmax (mean±S.E.M.), s.c. tumors >5 mm [2]: 2.0±0.06 | SUVmax in tumor sample s.c. 1 [2]: 1.88 | SUVmax in tumor sample s.c. 2 [2]: 2.25 | SUVmax in tumor sample s.c. 3 [2]: 2.09 | TLR for s.c. tumors (range over tumor size) [2]: 1.56-2.24 | TLR, s.c. tumors <5 mm [2]: 2.24 | TLR, s.c. tumors >5 mm [2]: 1.56 | TBR, s.c. tumors <5 mm [2]: 7.2 | TBR, s.c. tumors >5 mm [2]: 5.0 | SUVmax in large s.c. tumor, representative animal [2, 5]: 2 | number of mice with subcutaneous tumors localized by PET ([2]; four mice): 4 in 4 mice | number of subcutaneous tumors localized by PET ([2]; four mice): 4 in 4 mice | SUVmax (mean±S.E.M.), adrenal tumors >3 mm ([3]; 60–70 min after administration): 6.61±0.64 | SUVmax (mean±S.E.M.), kidney ([3]; 60–70 min after administration): 1.73±0.34 | SUVmax (mean±S.E.M.), liver ([3]; 60–70 min after administration): 1.33±0.14 | SUVmax (mean±S.E.M.), liver tumors <3 mm ([3]; 60–70 min after administration): 3.01±0.27 | SUVmax (mean±S.E.M.), liver tumors >3 mm ([3]; 60–70 min after administration): 3.61±0.19 | SUVmax (mean±S.E.M.), muscle (background) ([3]; 60–70 min after administration): 0.29±0.02 | SUVmax (mean±S.E.M.), ovary tumors >3 mm ([3]; 60–70 min after administration): 2.59±0.32 | SUVmax in tumor sample Adrenal 2 ([3]; 60–70 min after administration): 5.79 | SUVmax in tumor sample Bone ([3]; 60–70 min after administration): 1.42 | SUVmax in tumor sample Liver 1 ([3]; 60–70 min after administration): 3.31 | SUVmax in tumor sample Liver 2 ([3]; 60–70 min after administration): 2.79 | SUVmax in tumor sample Liver 3 ([3]; 60–70 min after administration): 3.24 | SUVmax in tumor sample Lung ([3]; 60–70 min after administration): 1.15 | SUVmax in tumor sample Ovary ([3]; 60–70 min after administration): 3.05 | TLR (tumor-to-liver ratio), liver tumors <3 mm ([3]; 60–70 min after administration): 2.26 | TLR for liver lesions (range depending on tumor size) ([3]; 60–70 min after administration): 2.26–2.71 | TLR, liver tumors >3 mm ([3]; 60–70 min after administration): 2.71 | TBR (tumor-to-background ratio), liver tumors <3 mm ([3]; 60–70 min after administration): 10.38 | TBR, adrenal tumors >3 mm ([3]; 60–70 min after administration): 22.79 | TBR, liver tumors >3 mm ([3]; 60–70 min after administration): 12.45 | TBR, ovary tumors >3 mm ([3]; 60–70 min after administration): 8.93 | SUVmax in tumor sample Adrenal 1 ([3]; 60–70 min after administration): 6.46 | SUVmax time–activity course, liver lesions regardless of tumor size ([3]; dynamic PET 10–70 min, Fig. 1): remained stable over time | SUVmax in liver lesions, the first week [3]: 3.023±0.22 | SUVmax in liver lesions, the second week [3]: 2.88±0.12 | optimal time for lesion detection after administration [3]: 60 to 70 min | number of mice with adrenal tumors localized by PET ([3]; week 5, nine mice): 5 mice | number of mice with liver tumors localized by PET ([3]; week 5, nine mice): 9 mice | number of mice with lung tumors localized by PET ([3]; week 5, nine mice): 1 in 1 mouse | number of mice with ovary tumors localized by PET ([3]; week 5, nine mice): 4 in 4 mice | number of ovary tumors localized by PET ([3]; week 5, nine mice): 4 in 4 mice | number of adrenal tumors localized by PET ([3]; week 5, nine mice, necropsy 18 in 9 mice): 9 | number of lung tumors localized by PET ([3]; week 5, nine mice): 1 in 1 mouse

COc1cc2c(cc1OC)C1CC(=O)C(CC(C)C)CN1CC2 (stereo not shown) [tetrabenazine]
side effects on administration in tumor-bearing animals [1]: side effects were in most cases fatal

From paper PMC4713029 (Nuclear medicine and biology, 2011)
